Measured values published in US20250051391A1, “PEPTIDE INHIBITORS AND METHODS FOR INHIBITING PROTEIN AGGREGATION IN NEURONS AND NEURODEGENERATIVE DISEASES” (THE GOVERNING COUNCIL OF THE UNIVERSITY OF TORONTO, priority 2021, published 2025).
Ends that are not written are not given here.

Assays:
[1] = system: HEK293 cells overexpressing WT or A53T a-syn; test: Cell Titer-Glo cell viability assay in a-syn expressing cells; type: cell-based, human; conditions: for cell viability / cytoprotective effect: HEK293 cells overexpressing WT or A53T a-syn, with or without MG132, expressed GFP-peptide or protein
Experimental: Oligonucleotides encoding the specific peptides were synthesized and individually cloned into the pLJM1 nGFP lentiviral vector. Cells were infected with individual constructs, and cell viability was assessed using Cell Titer-Glo Luminescent assay (Promega) at 72 h post infection.
Cells were trypsinized from subconfluent cultures as described earlier, suspended in culture media, and then seeded into triplicate wells of a 96-well plate (100 μl well/1) at a density of 1.5×10^4 cells per well at standard culture conditions of 5% CO2 in air at 37° C. Cells were infected with lentivirus expressing peptide at an MOI of 5 for 72 h or transfected with plasmid for 72 h. Cell Titer-Glo reagent was added to each well (30 μL), according to the manufacturer's protocol and […].

[2] = system: WT a-syn oligomers; test: Split luciferase a-syn oligomer/aggregation assay; type: cell-based, human; conditions: cells stably expressing split luciferase WT a-syn constructs; GFP-peptide plasmids
Experimental: tet-off cells stably expressing split luciferase a-syn constructs were trypsinized from subconfluent culture and seeded in a 96-well plate at a density of 15,000 cells per well. Cells were incubated overnight at 37° C. in 5% CO2. […] After 6 h of incubation, 20 μL of cell medium was transferred to a black flat-bottomed 96-well plate. 50 μL of Working solution (Pierce Gaussia-Firefly Luciferase Dual Assay Kit, Thermo Scientific #16181) was added into each well containing cell medium. Immediately after adding the reagent, samples were read using a luminometer with a 480 nm filter.

[3] = biological target: T1, Flag-CHMP2B (Homo sapiens, UniProt Q9UQN3); test: Flag co-immunoprecipitation of GFP-peptides with Flag-CHMP2B; type: binding; conditions: GFP-tagged peptides in HEK293T cells
T1 construct: expressed in transfected cells; host or cells: HEK293T
T1 sequence (Q9UQN3 whole entry): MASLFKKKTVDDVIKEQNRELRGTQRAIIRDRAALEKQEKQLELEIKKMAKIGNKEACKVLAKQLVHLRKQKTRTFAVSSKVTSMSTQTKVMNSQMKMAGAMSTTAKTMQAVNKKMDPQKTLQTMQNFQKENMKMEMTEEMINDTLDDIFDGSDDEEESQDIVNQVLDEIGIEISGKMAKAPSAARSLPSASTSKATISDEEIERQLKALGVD
Experimental: (§1) HEK293T cells were co-transfected with Flag-tagged target protein, HA-tagged source protein, and GFP-tagged peptide or GFP. Cells were lysed 48 h after transfections with radioimmune precipitation assay buffer (50 mM Tris-HCl pH7.4, 1% Nonidet P-40, 150 mM NaCl, 1 mM EDTA, 10 mM Na3VO4, 10 mM sodium pyrophosphate, 25 mM NaF, 1× protease inhibitor mixture (Sigma)) for 30 min at 4° C. and coimmunoprecipitated with Flag beads (Clontech). The resulting immunocomplexes were analyzed by immunoblot using the appropriate antibodies. Protein samples were separated using 4-20% Mini-PROTEAN Tris-glycine gels (Bio-Rad) transferred to PVDF membranes and blocked in 5% milk containing PBS-Tween-20 (0.1%) for 1 h. PVDF membranes were then incubated with specified primary antibodies followed by incubation with horseradish peroxidase-conjugated secondary antibodies (Santa Cruz Biotechnology) and detected using enhanced chemiluminescence (GE Healthcare).

[4] = biological target: T2, a-syn-CHMP2B interaction (Homo sapiens, UniProt Q9UQN3); test: Co-immunoprecipitation: disruption of CHMP2B-A53T a-syn interaction; type: cell-based; conditions: HEK293 cells; Flag-CHMP2B, HA-tagged A53T a-syn, GFP-tagged peptides
T2 construct: expressed in transfected cells; host or cells: HEK293T
T2 sequence (Q9UQN3 whole entry): as above
Experimental: as §1

[5] = system: A53T a-syn; test: a-syn protein levels by immunoblot in HEK293 cells; type: cell-based, human; conditions: HEK293 cells expressing A53T a-syn
Experimental: Infected or transfected cells were scraped from 6-well dishes and lysed with lysis buffer (50 mM Tris-HCl pH7.4, 1% Nonidet P-40, 150 mM NaCl, 1 mM EDTA, 1× protease inhibitor mixture (Sigma)) for 30 min at 4° C. The insoluble pellet was removed following a 10,000 rpm spin for 5 minutes at 4° C. Lysates were analyzed by SDS-PAGE/immunoblot using 4-20% Mini-PROTEAN Tris-glycine gels (Bio-Rad) transferred to PVDF membranes and blocked in 5% milk containing PBS-Tween-20 (0.1%) for 1 h. PVDF membranes were then incubated with specified primary antibodies followed by incubation with horseradish peroxidase-conjugated secondary antibodies (Santa Cruz Biotechnology) and detected using enhanced chemiluminescence (GE Healthcare).

| Substance | cell viability / cytoprotective effect [1] | a-syn oligomers measured by luciferase activity [2] | interaction with Flag-CHMP2B (co-immunoprecipitation) [3] | disruption of a-syn-CHMP2B interaction (co-immunoprecipitation) [4] | a-syn protein levels by immunoblot [5] | effect on cell viability under p62 knockdown ([1]; HEK293 cells stably expressing p62 shRNA) | cytoprotective effect under shRNA knockdown of CHMP2B, VPS4A and/or VPS4B ([1]; cells stably expressing shRNAs) | interaction with Flag-CHMP2B (co-immunoprecipitation) ([3]; listed as Pdpep1.3) |
| --- | --- | --- | --- | --- | --- | --- | --- | --- |
| IPIQLKA [PDpep1, top hit of all screens; maps to CHMP2B residues 203-209] | cytoprotective effects | reduce WT a-syn oligomers | interacted with Flag-CHMP2B | disrupted the a-syn-CHMP2B interaction | reduction in a-syn levels | – | – | – |
| DEEIERQLKALG [PDpep1.3] | most prominent effects on cell survival | most prominent effects | interacted with Flag-CHMP2B | most prominent disruption | reduction in a-syn levels | not significantly affected | prevented by CHMP2B knockdown, but not by knockdown of VPS4A and/or VPS4B | binds to CHMP2B |
